{"source": "patent US20080004279A1", "about": "“Use of C-Kit Inhibitors for Treating Plasmodium Related Diseases” (priority 2004, published 2008)", "origin": "cited, not measured here", "key": {"[1]": {"tested_on": "GPI-induced NO production in macrophages and vascular endothelial cells"}}, "data": [{"compound": "O=c1c(-c2ccc(O)cc2)coc2cc(O)cc(O)c12", "note": "[genistein]", "values": [{"measurement": "release of NO by parasite extracts and by GPI", "setting": "[1]; GPI alone or in combination with IFN-gamma", "value": "inhibited"}]}, {"compound": "calphostin C", "values": [{"measurement": "GPI-induced NO production / release", "setting": "[1]", "value": "blocked"}]}, {"compound": "S=C(S)N1CCCC1", "note": "[pyrrolidine dithiocarbamate]", "values": [{"measurement": "GPI-induced NO production / release", "setting": "[1]", "value": "blocked"}]}, {"compound": "CCN(CC)CCCC(C)Nc1ccnc2cc(Cl)ccc12", "note": "(stereo not drawn) [Chloroquine]", "values": [{"measurement": "mode of inhibition of PTK with respect to ATP", "setting": "membrane bound PTK; kinetic studies", "value": "noncompetitive"}, {"measurement": "mode of inhibition of PTK with respect to peptide substrate", "setting": "membrane bound PTK; kinetic studies", "value": "competitive inhibitor"}, {"measurement": "IC50", "setting": "membrane bound PTK; read-out: inhibition of membrane bound PTK activity, IC50, dose dependent, P. falciparum", "value": 45, "unit": "µM"}]}]}
